# Assays:
# Format in all cases: functional
# UACC-257 = test: Anticancer activity against human UACC-257 cells assessed as cell growth inhibition incubated for 48 hrs by SRB assay
# CCRF-CEM = test: Anticancer activity against human CCRF-CEM cells assessed as cell growth inhibition incubated for 48 hrs by SRB assay
# NCI-H226 = test: Anticancer activity against human NCI-H226 cells assessed as cell growth inhibition incubated for 48 hrs by SRB assay
# TK-10 = test: Anticancer activity against human TK-10 cells assessed as cell growth inhibition incubated for 48 hrs by SRB assay
# NCI-H322M = test: Anticancer activity against human NCI-H322M cells assessed as cell growth inhibition incubated for 48 hrs by SRB assay
# 786-0 = test: Anticancer activity against human 786-0 cells assessed as cell growth inhibition incubated for 48 hrs by SRB assay
# HOP-92 = test: Anticancer activity against human HOP-92 cells assessed as cell growth inhibition incubated for 48 hrs by SRB assay
# MCF7 = test: Anticancer activity against human MCF7 cells assessed as cell growth inhibition incubated for 48 hrs by SRB assay
# SNB-75 = test: Anticancer activity against human SNB-75 cells assessed as cell growth inhibition incubated for 48 hrs by SRB assay
# HOP-62 = test: Anticancer activity against human HOP-62 cells assessed as cell growth inhibition incubated for 48 hrs by SRB assay
# HL-60(TB) = test: Anticancer activity against human HL-60(TB) cells assessed as cell growth inhibition incubated for 48 hrs by SRB assay
# OVCAR-8 = test: Anticancer activity against human OVCAR-8 cells assessed as cell growth inhibition incubated for 48 hrs by SRB assay
# SK-MEL-5 = test: Anticancer activity against human SK-MEL-5 cells assessed as cell growth inhibition incubated for 48 hrs by SRB assay
# SK-MEL-2 = test: Anticancer activity against human SK-MEL-2 cells assessed as cell growth inhibition incubated for 48 hrs by SRB assay
# OVCAR-5 = test: Anticancer activity against human OVCAR-5 cells assessed as cell growth inhibition incubated for 48 hrs by SRB assay
# SF-268 = test: Anticancer activity against human SF-268 cells assessed as cell growth inhibition incubated for 48 hrs by SRB assay
# MDA-MB-435 = test: Anticancer activity against human MDA-MB-435 cells assessed as cell growth inhibition incubated for 48 hrs by SRB assay
# UACC-62 = test: Anticancer activity against human UACC-62 cells assessed as cell growth inhibition incubated for 48 hrs by SRB assay
# RPMI-8226 = test: Anticancer activity against human RPMI-8226 cells assessed as cell growth inhibition incubated for 48 hrs by SRB assay
# MDA-MB-468 = test: Anticancer activity against human MDA-MB-468 cells assessed as cell growth inhibition incubated for 48 hrs by SRB assay
# NCI/ADR-RES = test: Anticancer activity against human NCI/ADR-RES cells assessed as cell growth inhibition incubated for 48 hrs by SRB assay
# M14 = test: Anticancer activity against human M14 cells assessed as cell growth inhibition incubated for 48 hrs by SRB assay
# Hs-578T = test: Anticancer activity against human Hs-578T cells assessed as cell growth inhibition incubated for 48 hrs by SRB assay
# COLO 205 = test: Anticancer activity against human COLO 205 cells assessed as cell growth inhibition incubated for 48 hrs by SRB assay
# A498 = test: Anticancer activity against human A498 cells assessed as cell growth inhibition incubated for 48 hrs by SRB assay
# ACHN = test: Anticancer activity against human ACHN cells assessed as cell growth inhibition incubated for 48 hrs by SRB assay
# NCI-H460 = test: Anticancer activity against human NCI-H460 cells assessed as cell growth inhibition incubated for 48 hrs by SRB assay
# HCC 2998 = test: Anticancer activity against human HCC 2998 cells assessed as cell growth inhibition incubated for 48 hrs by SRB assay
# SR = test: Anticancer activity against human SR cells assessed as cell growth inhibition incubated for 48 hrs by SRB assay
# DU-145 = test: Anticancer activity against human DU-145 cells assessed as cell growth inhibition incubated for 48 hrs by SRB assay
# SK-MEL-28 = test: Anticancer activity against human SK-MEL-28 cells assessed as cell growth inhibition incubated for 48 hrs by SRB assay
# T47D = test: Anticancer activity against human T47D cells assessed as cell growth inhibition incubated for 48 hrs by SRB assay
# SK-OV-3 = test: Anticancer activity against human SK-OV-3 cells assessed as cell growth inhibition incubated for 48 hrs by SRB assay
# SN12C = test: Anticancer activity against human SN12C cells assessed as cell growth inhibition incubated for 48 hrs by SRB assay
# PC-3 = test: Anticancer activity against human PC-3 cells assessed as cell growth inhibition incubated for 48 hrs by SRB assay
# U-251 = test: Anticancer activity against human U-251 cells assessed as cell growth inhibition incubated for 48 hrs by SRB assay
# CAKI-1 = test: Anticancer activity against human CAKI-1 cells assessed as cell growth inhibition incubated for 48 hrs by SRB assay
# SW-620 = test: Anticancer activity against human SW-620 cells assessed as cell growth inhibition incubated for 48 hrs by SRB assay
# EKVX = test: Anticancer activity against human EKVX cells assessed as cell growth inhibition incubated for 48 hrs by SRB assay
# [1] = read-out: LC50 (the source's name)
smiles,measurement,setting,value
NS(=O)(=O)c1ccc(Nc2nc(N/N=C/c3ccc(C(F)(F)F)cc3)nc(Nc3ccccc3)n2)cc1,GI50,UACC-257,2.42 µM
same,LC50,UACC-257,37.2 µM
same,GI50,CCRF-CEM,3 µM
same,CC50,CCRF-CEM; [1],> 100 µM
same,GI50,NCI-H226,2.45 µM
same,CC50,NCI-H226; [1],> 100 µM
same,GI50,TK-10,3.45 µM
same,CC50,TK-10; [1],33.7 µM
same,GI50,NCI-H322M,3.31 µM
same,CC50,NCI-H322M; [1],36.1 µM
same,GI50,786-0,2.22 µM
same,CC50,786-0; [1],33.7 µM
same,GI50,HOP-92,2.38 µM
same,CC50,HOP-92; [1],39.8 µM
same,GI50,MCF7,2.18 µM
same,LC50,MCF7,64.8 µM
same,GI50,SNB-75,2.05 µM
same,LC50 (concentration killing 50% of cells),SNB-75,37.5 µM
same,GI50,HOP-62,2.15 µM
same,CC50,HOP-62; [1],69.7 µM
same,GI50,HL-60(TB),3.59 µM
same,CC50,HL-60(TB); [1],> 100 µM
same,GI50,OVCAR-8,2.83 µM
same,LC50,OVCAR-8,35.5 µM
same,GI50,SK-MEL-5,1.74 µM
same,LC50,SK-MEL-5,5.82 µM
same,GI50,SK-MEL-2,2.17 µM
same,CC50,SK-MEL-2; [1],42.7 µM
same,GI50,OVCAR-5,2.96 µM
same,CC50,OVCAR-5; [1],39.9 µM
same,GI50,SF-268,3.51 µM
same,LC50 (concentration killing 50% of cells),SF-268,> 100 µM
same,GI50,MDA-MB-435,2.07 µM
same,LC50,MDA-MB-435,9.53 µM
same,GI50,UACC-62,2.35 µM
same,LC50,UACC-62,16.2 µM
same,GI50,RPMI-8226,2.77 µM
same,LC50 (concentration killing 50% of cells),RPMI-8226,> 100 µM
same,GI50,MDA-MB-468,1.73 µM
same,CC50,MDA-MB-468; [1],8.63 µM
same,GI50,NCI/ADR-RES,12.3 µM
same,CC50,NCI/ADR-RES; [1],> 100 µM
same,GI50,M14,2.51 µM
same,CC50,M14; [1],63.3 µM
same,GI50,Hs-578T,3.07 µM
same,LC50 (concentration killing 50% of cells),Hs-578T,> 100 µM
same,GI50,COLO 205,1.86 µM
same,CC50,COLO 205; [1],10.9 µM
same,GI50,A498,2.61 µM
same,CC50,A498; [1],63.8 µM
same,GI50,ACHN,2.68 µM
same,CC50,ACHN; [1],26.5 µM
same,GI50,NCI-H460,3.02 µM
same,CC50,NCI-H460; [1],> 100 µM
same,GI50,HCC 2998,2.97 µM
same,CC50,HCC 2998; [1],46.4 µM
same,GI50,SR,3.07 µM
same,CC50,SR; [1],> 100 µM
same,GI50,DU-145,3.31 µM
same,LC50 (50% lethal concentration),DU-145,36.7 µM
same,GI50,SK-MEL-28,2.44 µM
same,CC50,SK-MEL-28; [1],26.3 µM
same,GI50,T47D,2.48 µM
same,LC50,T47D,> 100 µM
same,GI50,SK-OV-3,3.66 µM
same,LC50,SK-OV-3,> 100 µM
same,GI50,SN12C,3 µM
same,LC50,SN12C,86.6 µM
same,GI50,PC-3,2.8 µM
same,CC50,PC-3; [1],78.5 µM
same,GI50,U-251,2.69 µM
same,CC50,U-251; [1],71.4 µM
same,GI50,CAKI-1,3.05 µM
same,CC50,CAKI-1; [1],51.9 µM
same,GI50,SW-620,3.3 µM
same,CC50,SW-620; [1],> 100 µM
same,GI50,EKVX,2.62 µM
same,CC50,EKVX; [1],40.3 µM

# Reference: ChEMBL document CHEMBL5154747, “Discovery of new carbonic anhydrase IX inhibitors as anticancer agents by toning the hydrophobic and hydrophilic rims of the active site to encounter the dual-tail approach” (Eur J Med Chem, 2022)
